# Measured values taken from ChEMBL document CHEMBL1201862, “PubChem BioAssay data set” (2004).
# Calls of active or inactive are those of the source.
# Columns and labels:
# [1] = molecular target: T1, Heat shock factor protein 1 (Mus musculus, UniProt P38532); test: inhibition of MG132-induced HSE-luciferase signal, confirmation, cell-based, NIH3T3, luminescence, dose retest (AID 2382); assay type: functional;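 further: NIH3T3 fibroblasts with HSF1-driven luciferase reporter stressed by proteasome inhibitor MG132; luminescence from HSF1-driven luciferase expression after 8 hours of MG132 stress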
# T1 sequence (P38532 whole entry): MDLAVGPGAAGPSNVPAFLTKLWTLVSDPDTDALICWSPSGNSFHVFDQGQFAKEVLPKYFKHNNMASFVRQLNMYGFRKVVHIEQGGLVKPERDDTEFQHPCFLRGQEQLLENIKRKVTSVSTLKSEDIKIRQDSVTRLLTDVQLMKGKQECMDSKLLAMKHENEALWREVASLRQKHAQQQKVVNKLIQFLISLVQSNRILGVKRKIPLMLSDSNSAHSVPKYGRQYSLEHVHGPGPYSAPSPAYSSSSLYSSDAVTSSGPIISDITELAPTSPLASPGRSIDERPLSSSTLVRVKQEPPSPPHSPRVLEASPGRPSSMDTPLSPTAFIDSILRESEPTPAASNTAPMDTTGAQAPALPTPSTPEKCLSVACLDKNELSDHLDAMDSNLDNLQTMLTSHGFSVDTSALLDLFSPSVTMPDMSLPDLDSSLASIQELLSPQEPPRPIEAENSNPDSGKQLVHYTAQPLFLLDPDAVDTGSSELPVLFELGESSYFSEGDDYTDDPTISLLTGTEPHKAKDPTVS
# [2] = HEp-2 cell cytotoxicity, dose response, cytotoxicity control for RSV inhibitor project, HTS (AID 2410); assay type: functional; conditions: human respiratory syncytial virus
# [3] = inhibitors of firefly luciferase expression or activity, dose response, H4 neuroglioma cells, luminescence (AID 1990); assay type: functional, cell-based
# [4] = Luminescence Cell-Based Dose Response HTS to Identify Inhibitors of 5'UTR Stem-Loop Driven Prion Protein mRNA Translation in H4 Neuroglioblastoma Cells. [Related pubchem assays: 1827 (Project Summary), 1813 (Primary HTS)]; assay type: functional
# [5] = inhibitors of SNCA 5'UTR-driven reporter translation, confirmation, H4 neuroglioma cells, luminescence (AID 1988); assay type: functional, cell-based
# [6] = molecular target: T2, Corticotropin-releasing factor receptor 2/Corticotropin-releasing factor-binding protein (Homo sapiens, UniProt P24387+Q13324); test: Dose Response confirmation of uHTS hits for small molecule antagonists of the CRF-binding protein and CRF-R2 receptor complex.; assay type: functional; conditions: read-out: IC50_Mean
# T2 sequence (Q13324 whole entry): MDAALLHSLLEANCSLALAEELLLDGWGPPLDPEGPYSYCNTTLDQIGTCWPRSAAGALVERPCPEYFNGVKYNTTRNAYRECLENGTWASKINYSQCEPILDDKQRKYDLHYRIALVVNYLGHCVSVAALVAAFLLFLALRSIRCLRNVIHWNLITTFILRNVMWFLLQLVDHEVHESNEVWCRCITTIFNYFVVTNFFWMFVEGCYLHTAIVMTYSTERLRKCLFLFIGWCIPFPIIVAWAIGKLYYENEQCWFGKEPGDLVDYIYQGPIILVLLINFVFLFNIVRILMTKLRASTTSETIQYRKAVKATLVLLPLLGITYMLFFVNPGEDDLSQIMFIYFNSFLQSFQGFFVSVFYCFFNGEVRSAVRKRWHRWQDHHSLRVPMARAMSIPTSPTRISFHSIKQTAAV
# T2 sequence (P24387 whole entry): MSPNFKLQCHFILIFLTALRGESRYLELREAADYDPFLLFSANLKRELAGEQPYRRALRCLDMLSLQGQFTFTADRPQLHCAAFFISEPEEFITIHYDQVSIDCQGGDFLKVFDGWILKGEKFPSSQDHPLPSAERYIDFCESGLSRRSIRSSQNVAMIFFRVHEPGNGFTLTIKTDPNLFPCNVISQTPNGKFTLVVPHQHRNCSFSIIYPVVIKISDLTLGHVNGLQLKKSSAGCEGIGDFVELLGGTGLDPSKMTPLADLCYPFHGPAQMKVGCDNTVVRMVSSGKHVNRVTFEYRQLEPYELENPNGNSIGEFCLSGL
# [7] = molecular target: T2, Corticotropin-releasing factor receptor 2/Corticotropin-releasing factor-binding protein; test: activators of CRF receptor 2 with binding protein – uHTS hits, confirmation (AID 602473); assay type: functional; conditions: read-out: EC50_Mean
# Cytochrome P450 3A4 = Cytochrome P450 3A4 (Homo sapiens, UniProt P08684);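 further: CYP3A4 tested as one member of a cytochrome P450 panel screen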
# Cytochrome P450 2C19 = Cytochrome P450 2C19 (Homo sapiens, UniProt P33261); test: Cytochrome panel assay with activity outcomes. Panel member name: p450-cyp2c19 Compounds with AC50 equal or less than 10 uM are considered active; assay type: functional
# [8] = Luminescence Cell-Based Dose Response HTS to Identify Activators of Luciferase Translation or Activity in H4 […] Cells. [Related pubchem assays: 1829 (Project Summary), 1814 (Primary HTS)]; assay type: functional
# H4 = test: Luminescence Cell-Based Dose Response HTS to Identify Activators of 5'UTR Stem-Loop Driven Prion Protein mRNA Translation in H4 Neuroglioblastoma Cells. [Related pubchem assays: 1829 (Project Summary), 1814 (Primary HTS)]; assay type: functional; conditions: Homo sapiens
# Chain of Cytochrome P450 2C19 (P33261 whole entry): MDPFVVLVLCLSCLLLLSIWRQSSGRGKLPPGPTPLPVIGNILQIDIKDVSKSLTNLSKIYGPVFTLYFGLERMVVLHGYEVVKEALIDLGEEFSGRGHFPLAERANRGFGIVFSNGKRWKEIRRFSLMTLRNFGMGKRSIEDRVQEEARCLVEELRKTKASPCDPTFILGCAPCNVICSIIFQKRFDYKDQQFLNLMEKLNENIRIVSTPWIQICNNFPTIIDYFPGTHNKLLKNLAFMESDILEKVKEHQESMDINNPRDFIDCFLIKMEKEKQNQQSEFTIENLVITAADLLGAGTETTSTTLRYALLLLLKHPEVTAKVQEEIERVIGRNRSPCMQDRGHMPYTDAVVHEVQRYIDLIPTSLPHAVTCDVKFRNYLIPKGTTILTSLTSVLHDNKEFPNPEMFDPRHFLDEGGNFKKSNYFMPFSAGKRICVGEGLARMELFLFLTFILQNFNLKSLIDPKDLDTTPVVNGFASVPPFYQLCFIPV
# Chain of Cytochrome P450 3A4 (P08684 whole entry): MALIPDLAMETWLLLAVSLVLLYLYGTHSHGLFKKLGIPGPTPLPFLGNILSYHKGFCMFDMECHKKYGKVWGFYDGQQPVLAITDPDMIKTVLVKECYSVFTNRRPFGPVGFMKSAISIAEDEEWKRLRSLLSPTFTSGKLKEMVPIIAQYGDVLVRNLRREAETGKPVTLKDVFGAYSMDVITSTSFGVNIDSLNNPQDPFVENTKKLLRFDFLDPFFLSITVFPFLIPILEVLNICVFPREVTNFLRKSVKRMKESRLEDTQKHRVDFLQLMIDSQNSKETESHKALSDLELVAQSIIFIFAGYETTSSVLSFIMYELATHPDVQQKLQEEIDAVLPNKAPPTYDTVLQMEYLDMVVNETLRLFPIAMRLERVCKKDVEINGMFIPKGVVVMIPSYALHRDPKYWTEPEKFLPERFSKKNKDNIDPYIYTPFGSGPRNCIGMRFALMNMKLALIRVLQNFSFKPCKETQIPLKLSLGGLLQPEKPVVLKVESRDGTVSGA
compound,measurement,setting,value
CC1CCN(c2nc3ccc(C(=O)N4CCN(Cc5ccc6c(c5)OCO6)CC4)cc3s2)CC1,EC50,[1],16.5 µM (active)
CC(C)OC(=O)c1ccc(N2CCN(c3ccc(F)cc3)CC2)nc1,CC50,[2],14.8 µM (active)
NS(=O)(=O)c1cccc(NC(=O)CNC(=O)CC23CC4CC(CC(C4)C2)C3)c1,EC50,[1],> 195 µM (not active)
CCn1nc(NC(=O)COC)c2cc3cccc(C)c3nc21,CC50,[2],> 50 µM (active)
COC(=O)c1ccc(NC(S)=Nc2ccccn2)cc1,CC50,[2],41.6 µM (active)
Cc1c(Cc2ccccc2)sc(N)c1C(N)=O,EC50,[3],22.7 µM (active)
same,EC50,[4],> 120 µM (not active)
same,EC50,[5],> 120 µM (not active)
COc1ccc(CN=C(S)Nc2ccc(-c3ccccc3)cc2)cc1,EC50,[3],> 120 µM (not active)
same,EC50,[4],> 120 µM (not active)
same,EC50,[5],> 120 µM (not active)
Cc1cc(C)cc(N(CC(=O)Nc2ccc(Br)cc2)S(=O)(=O)c2c(C)nc(O)nc2O)c1,EC50,[1],> 195 µM (not active)
CCc1cc(C)cc(OCCNC(=O)c2cncc(Br)c2)c1,EC50,[1],> 195 µM (not active)
CCN(c1ccc(NS(=O)(=O)c2cc(Cl)ccc2Cl)cc1)C(C)C,IC50,[6],> 47.1 µM (inactive)
same,EC50,[7],> 53 µM (inactive)
COc1ccccc1NC(=O)N(Cc1ccco1)Cc1cc2cc(C)cc(C)c2nc1O,CC50,[2],3.83 µM (active)
Oc1ccc(Br)cn1,EC50,[3],> 120 µM (not active)
same,EC50,[4],> 120 µM (not active)
same,EC50,[5],> 120 µM (not active)
COc1ccc(CN2C(=O)[C@@H]3Cc4c([nH]c5ccccc45)C(C)(C)N3C2=O)cc1,EC50,[3],> 120 µM (not active)
same,EC50,[4],> 120 µM (not active)
same,EC50,[5],> 120 µM (not active)
CCCNC(=O)COc1ccc2c(=O)c(Oc3ccccc3F)coc2c1,EC50,[1],> 195 µM (not active)
Cc1cc(C)n(C(CC(=O)O)C(=O)O)n1 (stereo not given),EC50,[1],> 195 µM (not active)
CN(c1ccccc1C(=O)Nc1cccc([N+](=O)[O-])c1)S(C)(=O)=O,EC50,[3],> 120 µM (not active)
same,EC50,[4],16.8 µM (active)
same,EC50,[5],> 120 µM (not active)
CO[C@@H]1/C=C\O[C@]2(C)Oc3c(C)c(O)c4c(O)c(cc(O)c4c3C2=O)NC(=O)/C(C)=C\C=C/[C@H](C)[C@@H](O)[C@H](C)[C@H](O)[C@H](C)[C@H](OC(C)=O)[C@@H]1C,AC50,Cytochrome P450 3A4,3.98 µM (inconclusive)
CCOc1cc2c(cc1OCC)C(c1ccc(OC)cc1)N(c1ccccc1)C(=O)C2 (stereo not given),EC50,[1],> 195 µM (not active)
COc1cc(SC)ccc1C(=O)NCCc1c[nH]c2ccccc12,CC50,[2],19.9 µM (active)
CCC(=O)Nc1cc(Cl)ccc1N1CCN(C(=O)CC)CC1,IC50,[6],> 47.1 µM (inactive)
same,EC50,[7],> 53 µM (inactive)
COc1ccc(N=C(S)Nc2ccc(F)cc2)c(OC)c1,EC50,[1],> 195 µM (not active)
CCOC(=O)c1c(C(F)(F)C(F)(F)C(F)(F)C(F)(F)F)n[nH]c1C,IC50,[6],> 47.1 µM (inactive)
same,EC50,[7],> 53 µM (inactive)
C=C1CCC[C@]2(C)C[C@H]3OC(=O)C(CN(C)CC(OC)OC)[C@H]3CC12 (stereo not given in full),CC50,[2],11.4 µM (active)
CCOC(=O)c1cc(C#N)c(N2CCN(c3ccccn3)CC2)nc1-c1ccccc1,IC50,[6],> 47.1 µM (inactive)
same,EC50,[7],> 53 µM (inactive)
COc1ccc(C2C(C(=O)c3ccc4c(c3)CC(C)O4)=C(O)C(=O)N2CCN2CCOCC2)cc1 (stereo not given),AC50,Cytochrome P450 2C19,inconclusive
same,AC50,Cytochrome P450 3A4,28.2 µM (inconclusive)
CCc1ccccc1OCC(=O)Nc1ccc2c(c1)OCCO2,CC50,[2],35.6 µM (active)
COc1ccc(CCN2C(=O)CC(Cc3ccccc3)C2=O)cc1OC (stereo not given),IC50,[6],> 47.1 µM (inactive)
same,EC50,[7],> 53 µM (inactive)
Cc1ccn2cc(-c3cccc(NC(=O)c4cccs4)c3)nc2c1,CC50,[2],26.1 µM (active)
Brc1ccc(C2=Nn3cnnc3SC2)cc1,CC50,[2],27.9 µM (active)
CC(=O)Nc1ccc(-c2csc(NCCc3ccccc3)n2)cc1,CC50,[2],41.3 µM (active)
COc1ccc(-c2nc3n(n2)C(c2ccccc2)C2=C(O)CCCC2=N3)cc1OC (stereo not given),EC50,[1],> 195 µM (not active)
CC(=O)Nc1ccc(S(=O)(=O)N2CCC(c3nnc(-c4ccc(C)cc4)o3)CC2)cc1,IC50,[6],> 47.1 µM (inactive)
same,EC50,[7],> 53 µM (inactive)
Cc1cccc2cc(CN(Cc3ccccc3)C(S)=NCCCN(C)C)c(O)nc12,EC50,[1],> 195 µM (not active)
COc1ccc(NC(=O)c2sc3nc(N4CCCC4)c4c(c3c2N)CC(C)(C)OC4)c(OC)c1,EC50,[3],35.2 µM (active)
same,EC50,[4],31.3 µM (active)
same,EC50,[5],14.7 µM (active)
Cc1ccnc(N2CCCC(C(=O)NCc3cccs3)C2)n1 (stereo not given),EC50,[1],> 195 µM (not active)
CC(=O)Nc1cc(C(=O)N2CCC3(CC2)OCCO3)ccc1S(=O)(=O)c1ccc(C)cc1,IC50,[6],> 47.1 µM (inactive)
same,EC50,[7],> 53 µM (inactive)
O=C(NCCOc1ccccc1F)c1cccc(S(=O)(=O)N2CCN(c3ccccc3)CC2)c1,CC50,[2],22.2 µM (active)
CCOc1ccc(NC(=O)C(C)NS(=O)(=O)c2ccc(NC(C)=O)cc2)cc1 (stereo not given),EC50,[1],> 195 µM (not active)
CCOC(=O)c1cccnc1NC(=O)c1ccncc1,EC50,[1],> 195 µM (not active)
Cc1c(C(=O)NCC2CCCO2)sc2nc(-c3ccc(F)cc3)cn12 (stereo not given),IC50,[6],> 47.1 µM (inactive)
same,EC50,[7],> 53 µM (inactive)
CNc1ccnc(-c2ccccc2C)n1,AC50,Cytochrome P450 2C19; read-out: AC50,31.6 µM (inconclusive)
same,AC50,Cytochrome P450 3A4,15.8 µM (inconclusive)
CC[C@@H]1OC(=O)[C@H](C)[C@H](O[C@@H]2C[C@](C)(OC)[C@H](O)[C@H](C)O2)[C@H](C)[C@H](O[C@@H]2O[C@@H](C)C[C@@H](N(C)C)[C@@H]2O)[C@](C)(O)C[C@H](C)C(=NOCOCCOC)[C@H](C)[C@H](O)[C@]1(C)O,AC50,Cytochrome P450 3A4,12.6 µM (inconclusive)
Cc1cc(C)nc(SCCC(=O)Nc2ccccc2C)n1,IC50,[6],> 47.1 µM (inactive)
same,EC50,[7],> 53 µM (inactive)
Cn1c(N)c(C(=O)Nc2ccc3ccccc3c2)sc1=S,EC50,[8],0.117 µM (active)
same,EC50,H4,0.279 µM (active)
Cc1ccccc1NC(=O)c1ccc2c(c1)OCCO2,EC50,[1],> 195 µM (not active)
O=C(Nc1ccc(Br)cc1)c1c[nH]cn1,EC50,[8],34.8 µM (active)
same,EC50,H4,28.8 µM (active)
CCOC(=O)c1sc2nc3n(c(=O)c2c1C)CCC(C)CC3 (stereo not given),CC50,[2],38.3 µM (active)
CC1CCN(C(=O)CSc2nc3ccccc3c(=O)n2Cc2ccc3c(c2)OCO3)CC1,CC50,[2],33.5 µM (active)
Cc1ccnc(N2CCCC(C(=O)NC3CC3)C2)n1 (stereo not given),IC50,[6],> 47.1 µM (inactive)
same,EC50,[7],> 53 µM (inactive)
C/C(=N\NS(=O)(=O)c1ccccc1)c1ccc2c(c1)OCCO2,EC50,[1],> 195 µM (not active)
O=S1(=O)CC/C(=N\Nc2ccc(F)cc2)c2ccsc21,EC50,[1],> 195 µM (not active)
CC(=O)c1cccc(/N=C/C2=C(O)OC3(CCCCC3)OC2=O)c1,AC50,Cytochrome P450 2C19,inconclusive
same,AC50,Cytochrome P450 3A4,35.5 µM (inconclusive)
C[C@]12CCC3C(CCC4=C/C(=N/OCC(=O)NC(CCC(N)=O)C(=O)O)CC[C@@]43C)C1CCC2O (stereo not given in full),CC50,[2],22.6 µM (active)
